“Also recorded” adds a separate entry of the source. Ends that are not written are not given here. Peptide text beside a SMILES is read from it. * marks the point of attachment. biotin = biotin on the C-terminal Lys, O=C1N[C@H]2[C@H](CS[C@H]2CCCCC(=O)*)N1; Biotin = O=C1N[C@H]2[C@H](CS[C@H]2CCCCC(=O)*)N1
Key:
[1] = test system: IL-21 in cDC1s (CD11c^+XCR1^+); experiment: Intracellular cytokine staining for IL-21 in FL-DCs; format: cell-based, mouse
Description: FL-DCs were incubated with 100 μg/mL OVA257-264, GA-OVA, CBP-12-OVA or PBS and protein transport inhibitor cocktail at 37 °C for 6 h. For Syk phosphorylation inhibition assay, FL-DCs were incubated with 2.5 μM R406 (MCE, New Jersey, USA) for 1 h and then cultured with 100 μg/mL CBP-12-OVA and protein transport inhibitor cocktail at 37 °C for 6 h. IL-21 positive frequency was detected by ICS. R406 is an ATP-competitive Syk kinase inhibitor [26]. Cells stained with anti-mouse-CD11c-APC (N418), anti-mouse/rat XCR1-Brilliant Violet 650™ (ZET) and anti-mouse-IL-21-PE (FFA21) or Rat IgG2a-PE kappa Isotype Control (eBR2a) for IL-21 production were analyzed by a flow cytometry.

spleen cDC1s = experiment: Phagocytosis / targeting of cDC1s in vivo; parameters: species or system mouse; conditions: 100 μg biotinylated peptide s.c., sacrificed after 15 min, n = 3 per group
From the text: Based on our previous study, Asp248 and Trp250 were two key residues for Clec9a to bind with WH peptide. In order to improve the binding of WH peptide to Clec9a, a silico residue scanning approach was applied to design high affinity WH mutants. The mutants were predicted by using the module of Residue Scanning mutates function, MOE (Molecular Operating Environments) software (2018 version, Chemical Computing Group Inc, Montreal, Quebec, Canada). Two hundred and twenty peptides were obtained, among which 15 peptides were selected and synthesized for experimental identification.
For phagocytosis in vivo, 6-week-old C57BL/6 mice were s.c. vaccinated with 100 μg biotinylated peptide. After 15 min of immunization, mice were sacrificed. Splenocytes were stained with anti-mouse CD45-FITC (30-F11), anti-mouse CD11c-PerCP-efluor […]
were fixed, permeabilized and further stained with SA-PE for CBP-12 targeting […]
For phagocytosis in vitro, FL-DCs were incubated with biotinylated GA peptide and CBP-12 for 30 min on ice, then cells were washed three times and culture for 2 h at 37 °C. FL-DCs were stained with anti-mouse CD45-FITC (30-F11), anti-mouse CD11c-PerCP-efluor 450 (N418), anti-mouse XCR1-BV650 (ZET) and CD11b-APC (M1/70) to mark cDC1s and cDC2s. Then FL-DCs were fixed, permeabilized and […]

HEK-293T^mock cells = experiment: Peptide binding assay by flow cytometry, mock-transfected HEK-293T cells; conditions: biotinylated peptides 100 µM, 30 min on ice, SA-PE
Description: (§1) HEK-293T cells were transiently transfected with pIRES2-EGFP-mClec9a plasmid, or the mock pIRES2-EGFP plasmid for binding assay. Cells (3 × 10^5) were incubated with rat serum to block Fc receptors and different biotinylated peptides for 30 min on ice. After washing three times, cells were stained with streptavidin (SA)-PE for 30 min on ice, and the samples were analyzed for binding affinity by a flow cytometry after washing once.

human Clec9a = human Clec9a (Homo sapiens, UniProt Q6UXN8); experiment: Binding to human Clec9a (data not shown)
Chain of human Clec9a (Q6UXN8 whole entry): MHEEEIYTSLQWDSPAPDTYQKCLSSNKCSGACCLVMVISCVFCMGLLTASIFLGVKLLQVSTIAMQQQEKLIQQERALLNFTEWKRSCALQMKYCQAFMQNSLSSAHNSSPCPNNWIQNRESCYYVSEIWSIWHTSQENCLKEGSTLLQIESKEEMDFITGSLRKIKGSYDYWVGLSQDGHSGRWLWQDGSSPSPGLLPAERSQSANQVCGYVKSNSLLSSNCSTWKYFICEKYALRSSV

[2] = test system: spleen cDC1s (CD45^+CD11c^+XCR1^+); experiment: Uptake of biotinylated peptide by spleen cDC1s in vitro; format: cell-based; conditions: mouse splenocytes, 6.25 µM biotinylated peptide 30 min on ice, then 2 h at 37 °C, SA-PE flow cytometry
Description: Mouse splenocytes (5 × 10^5) were incubated with biotinylated GA peptide and CBP-12 for 30 min on ice, and then cells were washed three times and cultured for 2 h at 37 °C. Spleen cells were stained with anti-mouse CD45-FITC (30-F11), anti-mouse CD11c-PerCP-efluor 450 (N418), anti-mouse XCR1-BV650 (ZET) and anti-mouse CD11b-APC (M1/70). Then cells were fixed, permeabilized and further stained with SA-PE for peptide uptake analysis.

mClec9a = molecular target: T1, mClec9a (Mus musculus, UniProt Q8BRU4); experiment: Peptide binding assay by flow cytometry, mClec9a-transfected HEK-293T cells; conditions: biotinylated peptides 100 µM, 30 min on ice, SA-PE
T1 construct: expressed in transfected cells; host or cells: HEK-293T
T1 sequence (Q8BRU4 1-264 isoform Q8BRU4-4): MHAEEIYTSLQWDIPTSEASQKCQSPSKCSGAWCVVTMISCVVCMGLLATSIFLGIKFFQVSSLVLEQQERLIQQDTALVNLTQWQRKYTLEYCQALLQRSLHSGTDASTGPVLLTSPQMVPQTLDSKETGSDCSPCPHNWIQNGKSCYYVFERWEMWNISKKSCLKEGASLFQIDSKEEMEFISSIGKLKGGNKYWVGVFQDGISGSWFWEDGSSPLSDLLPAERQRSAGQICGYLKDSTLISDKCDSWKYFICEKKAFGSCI
Description: as §1

[3] = molecular target: T2, mouse Clec9a (mClec9a) protein (Mus musculus, UniProt Q8BRU4); experiment: Binding affinity measurement by MST; conditions: ratio of MST KD values
T2 sequence (Q8BRU4 106-238 limits assumed): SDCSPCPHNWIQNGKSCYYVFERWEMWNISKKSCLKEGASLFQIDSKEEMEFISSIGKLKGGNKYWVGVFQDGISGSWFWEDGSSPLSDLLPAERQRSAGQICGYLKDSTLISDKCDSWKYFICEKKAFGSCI
Description: The affinity of the peptide to mouse Clec9a (mClec9a) protein was detected by microscale thermophoresis (MST) (NanoTemper Technologies GmhH, Germany). Briefly, mClec9a protein (Sino Biological, Beijing, China) was labeled with Red-NHS647 dye (NanoTemper Technologies GmhH, Germany), and the successfully labeled protein was used for affinity measurements. Peptides were diluted into serial concentrations with MST buffer. Equal volume of dye-labeled mClec9a protein was incubated with peptides at room temperature, the mixture was loaded onto capillaries (NanoTemper Technologies GmhH, Germany) and immediately analyzed by an MST instrument. The data were estimated by MO. Affinity Analysis v2.2.4.

[4] = In vitro enzyme degradation of peptide in mouse serum; format: in vitro ADME; conditions: 10% (V/V) mouse serum saline solution, peptide 1 mM, 37 °C, sampled 0, 0.25, 0.5, 1 and 2 h, residual peptide by RP-HPLC
Description: further stained with SA-PE. CBP-12 uptake by cDC1s and cDC2s were tested with […]
In vitro enzyme degradation of peptide
Peripheral blood of mice was stand at room temperature for 1 h, centrifuged for 10 min and then the supernatant was acquired. The peptide (1 mM) was added into 10% (V/V) serum saline solution and incubated for 2 h at 37 ℃. The samples taken at different time points were added 90% (V/V) acetonitrile-glacial acetic acid mixture and centrifuged for 15 min, then the supernatants were collected. The content of the residual peptide in samples was analyzed at 0 h, 0.25 h, 0.5 h, 1 h and 2 h by […]
CBP-12-OVA targeting to Clec9a together with adjuvant treated tumor model C57BL/6 or Clec9a−/− mice were s.c. injected with 2 × 10^5 B16-OVA cells. Three days after the tumor implantation, the mice were treated weekly for total of three times, with either 100 μg peptide or normal saline and 30 μg CpG ODN 1826 as adjuvant.
Then the mice were sacrificed after five days of the last injection.
Animal immunization and ex vitro CTL priming without adjuvant
For animal immunization and ex vivo CTL priming, female C57BL/6 mice of 6 -8 weeks were immunized with 20 μg OVA257–264, GA-OVA, CBP-12-OVA, or normal saline s.c. injected once a week for total of three times. Five days after the last

FL-DCs = experiment: Uptake of peptide^biotin-SA-PE by FL-DCs, confocal microscopy; format: cell-based, mouse; conditions: for effect of endocytosis inhibitor on uptake of CBP-12 by FL-DCs: pre-incubation 1 h with inhibitor, then 50 μM CBP-12^biotin-SA-PE 2 h at 37 °C
Description: Biotinylated peptide was mixed with SA-PE in a molar ratio of 1: 3 to obtain SA-PE labeled peptide (peptide^biotin-SA-PE). FL-DCs from wild type (WT) or Clec9a^-/- mice was harvested and washed twice with PBS before use. […] After washing, cells were incubated with Hoechst 33342 (Beyotime Biotechnology, Beijing, China) for 1 h to stain the nucleus. Cells were analyzed with a confocal laser scanning microscopy (Leica TCS SP8, Wetzlar, Germany).

[5] = molecular target: mouse Clec9a (mClec9a) protein (mouse) (UniProt Q8BRU4); experiment: MST; mClec9a protein labeled with Red-NHS647 dye; peptides in serial dilution in MST buffer, room temperature; MO. Affinity Analysis v2.2.4
[6] = 50 µM peptide^biotin-SA-PE, 2 h, 37 °C, confocal

Molecule: CC(C)[C@H](NC(=O)[C@H](CO)NC(=O)[C@H](CO)NC(=O)[C@H](Cc1c[nH]cn1)NC(=O)[C@H](Cc1ccccc1)NC(=O)[C@H](CCCNC(=N)N)NC(=O)[C@@H]1CCCN1C(=O)[C@@H](N)Cc1c[nH]c2ccccc12)C(=O)N[C@@H](CCCNC(=N)N)C(=O)N[C@@H](Cc1c[nH]cn1)C(=O)N[C@H](C(=O)N[C@@H](Cc1c[nH]cn1)C(=O)NCC(=O)NCC(=O)NCC(=O)N[C@@H](CCCCNC(=O)CCCC[C@@H]1SC[C@@H]2NC(=O)N[C@@H]21)C(=O)O)[C@@H](C)O [CBP-12] (H-WPRFHSSVRHTHGGGK(Biotin)-OH; N-terminus and C-terminus assumed)
- secretion of IL-21 from cDC1s, ICS ([1]; FL-DCs, 100 µg/mL peptide, 6 h, 37 °C): stimulated the secretion of IL-21 from cDC1s
- targeting of cDC1s versus cDC2s in vivo (spleen cDC1s): could target to cDC1s but not cDC2s
- binding to mock plasmid transfected HEK-293T cells (HEK-293T^mock cells): did not bind
- binding to human Clec9a (human Clec9a): could bind
- uptake by spleen cDC1s in vitro [2]: strong uptake
- binding to mClec9a-overexpressing HEK-293T cells (mClec9a): higher binding affinity than the other peptides
- affinity for mClec9a relative to WH peptide [3]: 37.2 fold
- stability in mouse serum [4]: resists protease hydrolysis; also recorded: stable in mouse serum for 1 h
- fluorescence signal in FL-DCs derived from Clec9a^-/- mice (FL-DCs; [6]): much lower
- fluorescence signal in FL-DCs of WT mice (FL-DCs; [6]): strong fluorescence signal

Molecule: COc1cc(Nc2ncc(F)c(Nc3ccc4c(n3)NC(=O)C(C)(C)O4)n2)cc(OC)c1OC [R406, reference compound]
- effect on CBP-12-OVA induced IL-21 secretion from cDC1s ([1]; 2.5 µM R406 for 1 h, then 100 µg/mL CBP-12-OVA 6 h): suppress the secretion of IL-21

Molecule: N=C(N)NC(=O)c1nc(Cl)c(N)nc1N [amiloride, reference compound]
- effect of endocytosis inhibitor on uptake of CBP-12 by FL-DCs (FL-DCs): inhibited

Molecule: CN(C)CCCN1c2ccccc2Sc2ccc(Cl)cc21 [chlorpromazine, reference compound]
- effect of endocytosis inhibitor on uptake of CBP-12 by FL-DCs (FL-DCs): inhibited

B1: CBP-12^biotin (12-mer Clec9a binding peptide, …-GGG-K^biotin) (peptide)
peptide: WPRFHSSVRHTHGGGK(biotin)
- Kd [5]: 0.61 µM

B2: WH^biotin (WH peptide, …-GGG-K^biotin) (peptide)
peptide: WPRFHSSVFHTHGGGK(biotin)
- Kd [5]: 22.7 µM
